Measured values as given in article PMC6572996, “Silver(I) Complexes of the Pharmaceutical Agents Metronidazole and 4-Hydroxymethylpyridine: Comparison of Cytotoxic Profile for Potential Clinical Application” (Molecules, 2019).

Assays:
[1] = tested on: Balb/c 3T3 cells; test: MTT assay (mitochondrial activity), Balb/c 3T3; assay type: cell-based, mouse; conditions: for Lowest concentration with significant (p ≤ 0.05) inhibition of mitochondrial activity (MTT): Balb/c 3T3, 72 h, vs negative control 0.1% DMSO
Description: (§1) Data obtained from the measurement of the optical density in these assays were transformed to percentages in relation to the control group, considered to be 100% for the MTT, NRU, and TPC assays and 0% for the LDH assay (Figure 1).
(§2) The human hepatoma cell line (HepG2) was purchased from the American Type Culture Collection (ATCC HB-8065). These cells were cultured in Minimum Essential Medium Eagle (MEME) (ATCC). The murine fibroblast cell line (Balb/c 3T3 clone A31) (gift from Department of Swine Diseases of the National Veterinary Research Institute in Pulawy) was cultured in Dulbecco’s Modified Eagle’s Medium (DMEM) (ATCC). The media were supplemented with 10% BCS (Balb/c 3T3), 10% FBS (HepG2), 1% L-glutamine, and 1% antibiotic solution. The cells were maintained in 75 cm^2 cell culture flasks (Nunc, Roskilde, Denmark) in a humidified incubator, NuAire (Plymouth, MN, USA) at 37 °C, in an atmosphere of 5% CO2. The medium was refreshed every two or three days and the cells were trypsinized by 0.25% trypsin–0.02% EDTA after reaching 70–80% confluence. Single cell suspensions were prepared and adjusted to a density of 2 × 10^5 cells/mL (HepG2) and 5 × 10^4 cells/mL (Balb/c 3T3). The cell suspension was transferred to 96-well plates (100 µL/well) and incubated for 24 h before the exposure to the study compounds.
(§3) The concentration ranges of compounds were chosen according to their solubility and their plasma level. Each compound was dissolved in DMSO. The final concentration of DMSO was 0.1% in the medium. The same final concentrations of the solvent and the 1% Trition-X 100 solution were used as the negative and positive controls, respectively. […] All compound solutions in the medium were freshly prepared and protected from light. […] The concentration range was selected on the basis of results from previous studies. Each concentration was tested in six replicates with three independent experiments. Cytotoxicity was assessed after 72 h of exposure of the cells to the compounds. The medium was not changed during the incubation time.
(§4) The metabolic activity of living cells was assessed by measuring the activity of dehydrogenases. After incubation of the cells with the compounds, a 10 μL portion of the MTT solution (5 mg/ml in PBS) was added to each well of the 96-well plates and incubated. After 3 h, the MTT solution was removed and the intracellular formazan crystals were dissolved in 100 µl DMSO. The plate was shaken for 15 min at room temperature and transferred to a microplate reader (LabSystems Multiskan RC, Thermo Fisher Scientific, Waltham, MA, USA) to measure the absorbance at 570 nm, using blanks as a reference. Cytotoxicity was expressed as a percentage of the negative control (0.1% DMSO).
(§5) The results of the tests were expressed as a mean ± SD. The experiments were performed in three independent repetitions. Statistical analysis was performed using GraphPad Prism 5 (San Diego, CA, USA). One-way analysis of variance (ANOVA) followed by Dunnett’s post-hoc test was applied. The 50% inhibition (cytotoxicity) concentrations (IC50) were derived from the dose–response curve plotted with the concentration of the compound (X-axis) vs. cell viability percent (Y-axis). The IC50 values were calculated by GraphPad Prism 5 software (San Diego, CA, USA). Statistical comparisons among IC50 values were performed by the analysis of variance (ANOVA) followed by the Tukey test. Values of p ≤ 0.05 were considered statistically significant.

[2] = tested on: Balb/c 3T3 cells; test: NRU assay (lysosomal activity), Balb/c 3T3; assay type: cell-based, mouse; conditions: for Lowest concentration with significant (p ≤ 0.05) inhibition of lysosomal activity (NRU): Balb/c 3T3, 72 h, vs negative control 0.1% DMSO
Description: as §1, §2, §3
(§6) The assay, based on the staining of living cells by neutral red, was performed according to the protocol described by Borenfreund and Puerner. After incubation, the medium containing the compound was removed and the cells were washed with PBS. Then, a 100 µL/well of NR solution (50 µg/mL) was added for 3 h. After that time, the cells were washed with PBS. The dye from viable cells was released by extraction with a mixture of acetic acid, ethanol, and water. After 10 min of shaking, the absorbance of the dissolved NR was measured at 540 nm in a microplate reader (LabSystems Multiskan RC, Thermo Fisher Scientific, Waltham, MA, USA) using a blank as a reference. Cytotoxicity was expressed as a percentage of the negative control (0.1% DMSO).
as §5

[3] = tested on: Balb/c 3T3 cells; test: TPC assay (total protein content), Balb/c 3T3; assay type: cell-based, mouse; conditions: for Lowest concentration with significant (p ≤ 0.05) decrease of total protein content (TPC): Balb/c 3T3, 72 h, vs negative control 0.1% DMSO
Description: as §1, §2, §3
(§7) The assay was based upon staining total cellular protein (proliferation). After incubation, the medium containing the compound was removed and 100 µL of Coomassie Brilliant Blue R-250 dye were added to each well. The plate was shaken for 10 min. Then, the stain was removed and the cells were rinsed twice with 100 µL of washing solution (glacial acetic acid/ethanol/water). After that, a 100 µL portion of the desorbing solution (1 M potassium acetate) was added and plates were shaken again for 10 min. The absorbance was measured at 595 nm in a microplate reader (LabSystems Multiskan RC, Thermo Fisher Scientific, Waltham, MA, USA) using a blank as a reference. Cytotoxicity was expressed as a percentage of the negative control (0.1% DMSO).
as §5

[4] = tested on: Balb/c 3T3 cells; test: Leakage LDH assay (cellular membrane integrity), Balb/c 3T3; assay type: cell-based, mouse; conditions: for Lowest concentration with significant (p ≤ 0.05) disintegration of the cellular membrane (LDH): Balb/c 3T3, 72 h, vs negative control 0.1% DMSO
Description: as §1, §2, §3
(§8) The integrity of the plasma membrane was assessed using the test of lactate dehydrogenase (LDH) release, which was monitored using the commercially available Cytotoxicity Detection Kit (LDH) (Roche Diagnostics, Warsaw, Poland). The medium (100 µL/well) without cells was transferred into the corresponding wells of an optically clear 96-well flat bottom microplate and a 100 µl reaction mixture was added to each well. Then, the plates were incubated for 30 min at room temperature in darkness. After that time, a 50 µL/well 1 M HCl was added to stop the reaction. The absorbance was measured at 492 nm in a microplate reader (LabSystems Multiskan RC, Thermo Fisher Scientific, Waltham, MA, USA) using a blank as a reference.
as §5

[5] = tested on: HepG2 cells; test: MTT assay (mitochondrial activity), HepG2; assay type: cell-based, human; conditions: for Lowest concentration with significant (p ≤ 0.05) inhibition of mitochondrial activity (MTT): HepG2, 72 h, vs negative control 0.1% DMSO
Description: as §1, §2, §3, §4, §5

[6] = tested on: HepG2 cells; test: NRU assay (lysosomal activity), HepG2; assay type: cell-based, human; conditions: for Lowest concentration with significant (p ≤ 0.05) inhibition of lysosomal activity (NRU): HepG2, 72 h, vs negative control 0.1% DMSO
Description: as §1, §2, §3, §6, §5

[7] = tested on: HepG2 cells; test: TPC assay (total protein content), HepG2; assay type: cell-based, human; conditions: for Lowest concentration with significant (p ≤ 0.05) decrease of total protein content (TPC): HepG2, 72 h, vs negative control 0.1% DMSO
Description: as §1, §2, §3, §7, §5

[8] = tested on: HepG2 cells; test: Leakage LDH assay (cellular membrane integrity), HepG2; assay type: cell-based, human; conditions: for Lowest concentration with significant (p ≤ 0.05) disintegration of the cellular membrane (LDH): HepG2, 72 h, vs negative control 0.1% DMSO
Description: as §1, §2, §3, §8, §5

[9] = Cytotoxicity over four assays in both cell lines; assay type: cell-based; conditions: mouse (Balb/c 3T3) and human (HepG2), Balb/c 3T3 clone A31 fibroblasts and HepG2 hepatoma cells, mostly greater than 50%, read-out: Viability of the cells at the highest concentrations used
Description: as §1
as §2, with “Single cell suspensions were prepared and adjusted to a density of 2 × 10^5 cells/mL (HepG2) and 5 × 10^4 cells/mL (Balb/c 3T3). The cell suspension was transferred to 96-well plates (100 µL/well) and incubated for 24 h before the exposure to the study compounds.” left out
The concentration ranges of compounds were chosen according to their solubility and their plasma level. […] Cytotoxicity was assessed after 72 h of exposure of the cells to the compounds. […]
The results of the tests were expressed as a mean ± SD. […] The IC50 values were calculated by GraphPad Prism 5 software (San Diego, CA, USA). […]

[10] = tested on: murine melanoma (B16) cell line; parameters: method as in PMID 26828469; conditions: same observation as in this study; cited from earlier work
[11] = tested on: 10T1/2 cell line; parameters: method as in PMID 26828469; conditions: same observation as in this study; cited from earlier work

SMILES | Lowest concentration with significant (p ≤ 0.05) inhibition of mitochondrial activity (MTT) [1] [µM] | Lowest concentration with significant (p ≤ 0.05) inhibition of lysosomal activity (NRU) [2] [µM] | Lowest concentration with significant (p ≤ 0.05) decrease of total protein content (TPC) [3] [µM] | Lowest concentration with significant (p ≤ 0.05) disintegration of the cellular membrane (LDH) [4] [µM] | Lowest concentration with significant (p ≤ 0.05) inhibition of mitochondrial activity (MTT) [5] [µM] | Lowest concentration with significant (p ≤ 0.05) inhibition of lysosomal activity (NRU) [6] [µM] | Lowest concentration with significant (p ≤ 0.05) decrease of total protein content (TPC) [7] [µM] | Lowest concentration with significant (p ≤ 0.05) disintegration of the cellular membrane (LDH) [8] [µM] | IC50 ([1]; Mus musculus, BALB/c3T3, Balb/c 3T3, 72 h exposure, mean (n = 3) ± SEM, read-out: Inhibitory concentration IC50, MTT) [µM] | IC50 ([2]; Mus musculus, BALB/c3T3, Balb/c 3T3, 72 h exposure, mean (n = 3) ± SEM, read-out: Inhibitory concentration IC50, NRU) [µM] | IC50 ([3]; Mus musculus, BALB/c3T3, Balb/c 3T3, 72 h exposure, mean (n = 3) ± SEM, read-out: Inhibitory concentration IC50, TPC) [µM] | IC50 ([4]; Mus musculus, BALB/c3T3, Balb/c 3T3, 72 h exposure, mean (n = 3) ± SEM, read-out: Inhibitory concentration IC50, LDH) [µM] | IC50 ([5]; Homo sapiens, HepG2, 72 h exposure, mean (n = 3) ± SEM, read-out: Inhibitory concentration IC50, MTT) [µM] | IC50 ([6]; Homo sapiens, HepG2, 72 h exposure, mean (n = 3) ± SEM, read-out: Inhibitory concentration IC50, NRU) [µM] | IC50 ([7]; Homo sapiens, HepG2, 72 h exposure, mean (n = 3) ± SEM, read-out: Inhibitory concentration IC50, TPC) [µM] | IC50 ([8]; Homo sapiens, HepG2, 72 h exposure, mean (n = 3) ± SEM, read-out: Inhibitory concentration IC50, LDH) [µM] | viability at 72 h [9] [%] | Cytotoxicity in B16 cell line [10] | Cytotoxicity in 10T1/2 cell line [11]
O=[N+]([O-])[O-].OCc1ccncc1.OCc1ccncc1.[Ag+] [Silver(I) + 4-hydroxymethylpyridine, [(4-hydroxymethylpyridine)2Ag]NO3] | 3.8 | 0.98 | 1.9 | 0.98 | 3.8 | 3.8 | 7.6 | 3.8 |  |  |  |  |  |  |  |  |  |  | 
Cc1ncc([N+](=O)[O-])n1CCO.Cc1ncc([N+](=O)[O-])n1CCO.O=[N+]([O-])[O-].[Ag+] [Silver(I) + metronidazole, [(Metronidazole)2AgNO3]] | 0.74 | 3.0 | 3.0 | 0.74 | 6.0 | 6.0 | 3.0 | 6.0 |  |  |  |  |  |  |  |  |  |  | 
OCc1ccncc1 [4-hydroxymethylpyridine] | 13.6 | 7.0 | 57 |  |  |  |  |  | > 227 | > 227 | > 227 | > 227 | > 227 | > 227 | > 227 | > 227 | > 50 | poorly cytotoxic | poorly cytotoxic
